Structures can show the parent of a compound that is named as a salt. Where two headings read alike, the source gives them in different places.
What was measured:
[1] = Pulse radiolysis (E(1) and fragmentation rate); format: physicochemical; conditions: for kfrag. (fragmentation rate constant upon 1-electron reduction): benzyl-type radical formation; for E (1)/V (one-electron reduction potential): determined against methylviologen
Description: (§1) Pulse radiolysis was used to monitor the 1-electron reduction and stability of the compounds in real time. A linear accelerator delivering short pulses of high energy electrons (2-3 Gy in 200 ns of 4 MeV) equipped with a fast spectophotometric detection system was used. (Anderson et al, J. Phys. Chem. A, 101, 9704-9709, 1997). […] The rate of fragmentation was determined by analysing kinetic transients at wavelengths corresponding to the formation of the benzyl-type radical of the trigger moiety. (Bays et al, J. Am. Chem. Soc., 105, 320-324, 1983; Anderson et al, J. Phys. Chem. A, 101, 9704-9709, 1997).
The pulse radiolysis method, for example, measures the equilibrium constant between the radical anions of the prodrugs, formed upon their 1-electron reduction, and reference standards such as viologen and quinone compounds, from which data the E(1) values of the compounds can be calculated. (Meisel and Czapski. J. Phys. Chem., 1975, 79, 1503-1509.) The E(1) values of prodrugs 17-22, 140-145 were measured by the pulse radiolysis method and determined to range between −0.493V and −0.388V (Table 4).
The rate constants for fragmentation, kfrag, of the 1-electron reduced prodrugs can be measured using pulse radiolysis to observe the time-resolved formation of the absorption spectrum of the benzyl-type radical produced upon fragmentation of the radical anion. (Anderson et al, J. Phys. Chem. A, 1997, 101, 9704-9709.) The kfrag values of prodrugs 19, 20, 140, 141 and 143-145 were measured by pulse radiolysis and are presented in Table 4.
as §1, with “one-electron” for “1-electron”, “prodrug 42” for “the compounds”, “used.” for “used. (Anderson et al, J. Phys. Chem. A, 101, 9704-9709, 1997).”, “1997.)” for “1997).”

[2] = tested on: H1975 cells; assay: Cellular growth inhibition (sulforhodamine B); format: cell-based, Human
[3] = tested on: A431 cells; assay: Cellular growth inhibition (sulforhodamine B); conditions: for A431 HCR (Hypoxic Cytotoxicity Ratio): Table 3
[4] = Steady state radiolytic reduction by the CO2.− radical with HPLC-MS; format: physicochemical; conditions: for Detection of MNA (methyl nitroaromatic) / release of effector following 1-electron reduction: HPLC-MS; for % Loss of prodrug: HPLC-MS at 0.95 reducing equivalents; for release of effector following 1-electron reduction: steady state radiolysis
[5] = tested on: HT29 cells; assay: Cellular growth inhibition (sulforhodamine B); format: cell-based, Human; conditions: Table 7
[6] = biological target: erbB1 (Homo sapiens, UniProt P00533); assay: Inhibition of erbB1 autophosphorylation in EGF-stimulated intact A431 cells (Western blot)
Chain of erbB1 (P00533 25-1210): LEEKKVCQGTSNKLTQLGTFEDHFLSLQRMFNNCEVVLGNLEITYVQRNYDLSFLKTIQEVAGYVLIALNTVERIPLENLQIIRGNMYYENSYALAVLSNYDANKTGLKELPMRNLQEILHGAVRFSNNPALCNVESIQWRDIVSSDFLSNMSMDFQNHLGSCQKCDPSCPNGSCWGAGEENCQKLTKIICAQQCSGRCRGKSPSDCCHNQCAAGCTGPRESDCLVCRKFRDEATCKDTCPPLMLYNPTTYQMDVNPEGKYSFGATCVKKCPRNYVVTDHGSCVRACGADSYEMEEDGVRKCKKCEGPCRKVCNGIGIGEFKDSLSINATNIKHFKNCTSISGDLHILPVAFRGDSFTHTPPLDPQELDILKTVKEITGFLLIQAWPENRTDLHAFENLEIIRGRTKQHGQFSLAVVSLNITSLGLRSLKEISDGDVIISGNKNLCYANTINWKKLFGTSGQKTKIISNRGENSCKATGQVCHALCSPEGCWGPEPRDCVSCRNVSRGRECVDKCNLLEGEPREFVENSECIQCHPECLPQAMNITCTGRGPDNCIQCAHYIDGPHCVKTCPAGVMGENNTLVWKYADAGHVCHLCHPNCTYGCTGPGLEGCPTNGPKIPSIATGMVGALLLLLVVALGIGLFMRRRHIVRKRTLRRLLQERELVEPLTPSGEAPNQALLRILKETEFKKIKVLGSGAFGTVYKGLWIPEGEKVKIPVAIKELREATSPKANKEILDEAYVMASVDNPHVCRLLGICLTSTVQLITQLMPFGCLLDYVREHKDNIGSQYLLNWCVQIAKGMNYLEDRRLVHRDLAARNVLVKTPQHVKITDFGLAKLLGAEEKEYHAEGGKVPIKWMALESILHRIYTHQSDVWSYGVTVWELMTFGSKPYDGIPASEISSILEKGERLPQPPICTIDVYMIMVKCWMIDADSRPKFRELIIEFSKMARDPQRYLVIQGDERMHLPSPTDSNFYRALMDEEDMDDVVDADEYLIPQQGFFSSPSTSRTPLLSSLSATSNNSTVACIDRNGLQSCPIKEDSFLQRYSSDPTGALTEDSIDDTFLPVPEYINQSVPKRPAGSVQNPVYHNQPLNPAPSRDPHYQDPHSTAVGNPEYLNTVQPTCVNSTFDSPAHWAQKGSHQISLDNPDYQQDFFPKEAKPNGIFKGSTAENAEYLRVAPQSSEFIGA

[7] = tested on: SKOV3 cells; assay: Cellular growth inhibition (sulforhodamine B); format: cell-based, Human; conditions: Table 9; for IC50: Homo sapiens, SK-OV-3
[8] = tested on: SW620 cells; assay: Cellular growth inhibition (sulforhodamine B); format: cell-based, Human; conditions: Table 3; for IC50: Homo sapiens, SW-620
[9] = tested on: SKBR3 cells; assay: Cellular growth inhibition (sulforhodamine B); format: cell-based, Human; conditions: Table 3; for IC50: Homo sapiens, SK-BR-3
[10] = Table 7, 24 hour exposure oxic, read-out: Cellular Growth Inhibition IC50 H1975 Oxic
[11] = Table 7, initial 4 hours anoxic, read-out: Cellular Growth Inhibition IC50 H1975 Anoxic
[12] = read-out: Cellular Growth Inhibition IC50 A431 Anoxic, Table 7, initial 4 hours anoxic
[13] = read-out: Cellular Growth Inhibition IC50 A431 Oxic, Table 7, 24 hour exposure oxic
[14] = 24 hour exposure oxic, read-out: Cellular Growth Inhibition IC50 HT29 Oxic
[15] = initial 4 hours anoxic, read-out: Cellular Growth Inhibition IC50 HT29 Anoxic
[16] = Homo sapiens, A-431, 24 h, read-out: Cellular Growth Inhibition IC50 A431 Oxic
[17] = 24 hour exposure entirely oxic, read-out: Cellular Growth Inhibition IC50 SW620 Oxic
[18] = first 4 hours anoxic, read-out: Cellular Growth Inhibition IC50 SW620 Anoxic
[19] = Homo sapiens, A-431, read-out: Cellular Growth Inhibition IC50 A431 Anoxic
[20] = 24 hour exposure entirely oxic, read-out: Cellular Growth Inhibition IC50 SKBR3 Oxic
[21] = first 4 hours anoxic, read-out: Cellular Growth Inhibition IC50 SKBR3 Anoxic

Row | Compound | E (1)/V (one-electron reduction potential) [1] | IC50 [2, 10] | IC50 [2, 11] | IC50 [3, 12] | IC50 [3, 13] | Detection of MNA (methyl nitroaromatic) [4] | % Loss of prodrug [4] | IC50 [5, 14] | IC50 [5, 15] | melting point | kfrag. (fragmentation rate constant upon 1-electron reduction) [1] | H1975 HCR ([2]; Table 7) | A431 HCR ([3]; Table 7) | also measured
1 | CC[N+](CC)(CCNC(=O)c1c(C)[nH]c(/C=C2\C(=O)Nc3ccc(F)cc32)c1C)Cc1c([N+](=O)[O-])ncn1C.O=C([O-])C(F)(F)F [Compound 144, N,N-diethyl-2-[({5-[(Z)-(5-fluoro-2-oxo-1,2-dihydro-3H-indol-3-ylidene)methyl]-2,4-dimethyl-1H-pyrrol-3-yl}carbonyl)amino]-N-[(1-methyl-4-nitro-1H-imidazol-5-yl)methyl]ethanammonium trifluoroacetate] | −0.449 V | 203000 nM | 57200 nM | 24100 nM | 146000 nM | Yes | 68% | 298000 nM | 10700 nM | – | 470 ± 20 s⁻¹ | 3 fold | 7 fold | release of effector following 1-electron reduction [4]: released their respective effector compounds; HT29 HCR [5]: 31 fold
2 | C[N+](C)(C/C=C/C(=O)Nc1ccc2ncnc(Nc3cccc(Br)c3)c2c1)Cc1ccc([N+](=O)[O-])cc1 (as salt: bromide) [Compound 17, (2E)-4-{[4-(3-bromoanilino)-6-quinazolinyl]amino}-N,N-dimethyl-N-(4-nitrobenzyl)-4-oxo-2-buten-1-ammonium bromide] | – | – | – | – | – | – | – | – | – | 178 to 181 °C | – | – | – | –
3 | CN(C)C/C=C/C(=O)Nc1cc2c(Nc3ccc(F)c(C(F)(F)F)c3)ncnc2cn1 [Compound 170] | – | – | – | – | – | – | – | – | – | – | – | – | – | IC50 ([2]; Homo sapiens, NCI-H1975, Table 9, 24 hour exposure oxic, read-out: Cellular Growth Inhibition IC50 H1975 Oxic): 1700 nM; IC50 ([2]; Homo sapiens, NCI-H1975, Table 9, first 4 hours anoxic, read-out: Cellular Growth Inhibition IC50 H1975 Anoxic): 1380 nM; H1975 HCR ([2]; Table 9): 1.2 fold; IC50 ([3]; Homo sapiens, A-431, 4 h, read-out: Cellular Growth Inhibition IC50 A431 Anoxic): 250 nM; IC50 [3, 16]: 240 nM; A431 HCR ([3]; Table 9): 1.5 fold; IC50 [6]: 8 nM; IC50 ([7]; 24 hour exposure oxic, read-out: Cellular Growth Inhibition IC50 SKOV3 Oxic): 990 nM; IC50 ([7]; first 4 hours anoxic, read-out: Cellular Growth Inhibition IC50 SKOV3 Anoxic): 1800 nM; SKOV3 HCR [7]: 0.7 fold
4 | CC[N+](CC)(CCNC(=O)c1c(C)[nH]c(/C=C2\C(=O)Nc3ccc(F)cc32)c1C)Cc1c([N+](=O)[O-])nc(C)n1C.[Br-] [Compound 145, N-[(1,2-dimethyl-4-nitro-1H-imidazol-5-yl)methyl]-N,N-diethyl-2-[({5-[(Z)-(5-fluoro-2-oxo-1,2-dihydro-3H-indol-3-ylidene)methyl]2,4-dimethyl-1H-pyrrol-3-yl}carbonyl)amino]ethanammonium bromide] | −0.456 V | – | – | – | – | Yes | 87% | – | – | – | 1050 ± 40 s⁻¹ | – | – | –
5 | C[N+](C)(C/C=C/C(=O)Nc1ccc2ncnc(Nc3cccc(Br)c3)c2c1)Cc1ccccc1[N+](=O)[O-] (as salt: bromide) [Compound 18, (2E)-4-{[4-(3-bromoanilino)-6-quinazolinyl]amino}-N,N-dimethyl-N-(2-nitrobenzyl)-4-oxo-2-buten-1-ammonium bromide] | – | – | – | – | – | – | – | – | – | 166 to 169 °C | – | – | – | –
6 | O=C(/C=C/CN1CCOCC1)Nc1ccc2ncnc(Nc3cccc(Br)c3)c2c1 [Compound 13, (E)-N-(4-(3-bromophenylamino)quinazolin-6-yl)-4-morpholinobut-2-enamide, reference compound] | – | – | – | – | – | – | – | – | – | – | – | – | – | IC50 [8, 17]: 27400 nM; IC50 [8, 18]: 29000 nM; SW620 HCR [8]: 1.5 fold; IC50 [3, 16]: 430 nM; IC50 [3, 19]: 784 nM; A431 HCR (Hypoxic Cytotoxicity Ratio) [3]: 0.5 fold; IC50 [6]: 16 nM; IC50 [9, 20]: 1040 nM; IC50 [9, 21]: 664 nM; SKBR3 HCR [9]: 1.6 fold
7 | O=C(/C=C/CN1CCCCC1)Nc1ccc2ncnc(Nc3cccc(Br)c3)c2c1 [Compound 12, (E)-N-(4-(3-bromophenylamino)quinazolin-6-yl)-4-(piperidin-1-yl)but-2-enamide, reference compound] | – | – | – | – | – | – | – | – | – | – | – | – | – | IC50 [8, 17]: 3810 nM; IC50 [8, 18]: 4010 nM; SW620 HCR [8]: 1.0 fold; IC50 [3, 16]: 10 nM; IC50 [3, 19]: 23 nM; A431 HCR (Hypoxic Cytotoxicity Ratio) [3]: 0.4 fold; IC50 [6]: 45 nM; IC50 [9, 20]: 44 nM; IC50 [9, 21]: 28 nM; SKBR3 HCR [9]: 1.6 fold

Continued, in another order:

Row | E (1)/V (one-electron reduction potential) [1] | IC50 [2, 10] | IC50 [2, 11] | IC50 [3, 12] | IC50 [3, 13] | Detection of MNA (methyl nitroaromatic) [4] | % Loss of prodrug [4] | IC50 [5, 14] | IC50 [5, 15] | melting point | Compound | kfrag. (fragmentation rate constant upon 1-electron reduction) [1] | H1975 HCR ([2]; Table 7) | A431 HCR ([3]; Table 7) | also measured
8 | −0.429 V | 4700 nM | 430 nM | 510 nM | 7900 nM | Yes | 92% | 4600 nM | 310 nM | – | CC[N+](CC)(CCOc1ccc(Nc2ncc3cc(-c4c(Cl)cccc4Cl)c(=O)n(C)c3n2)cc1)Cc1c([N+](=O)[O-])ncn1C.[Br-] [Compound 140, 2-(4-{[6-(2,6-dichlorophenyl)-8-methyl-7-oxo-7,8-dihydropyrido[2,3-d]pyrimidin-2-yl]amino}phenoxy)-N,N-diethyl-N-[(1-methyl-4-nitro-1H-imidazol-5-yl)methyl]ethanammonium bromide] | 310 ± 20 s⁻¹ | 13 fold | 15 fold | release of effector following 1-electron reduction [4]: released their respective effector compounds; HT29 HCR [5]: 15 fold
9 | −0.456 V | 6100 nM | 370 nM | 440 nM | 12300 nM | Yes | 83% | 5600 nM | 320 nM | – | CC[N+](CC)(CCOc1ccc(Nc2ncc3cc(-c4c(Cl)cccc4Cl)c(=O)n(C)c3n2)cc1)Cc1c([N+](=O)[O-])nc(C)n1C.[Br-] [Compound 141, 2-(4-{[6-(2,6-dichlorophenyl)-8-methyl-7-oxo-7,8-dihydropyrido[2,3-d]pyrimidin-2-yl]amino}phenoxy)-N-[(1,2-dimethyl-4-nitro-1H-imidazol-5-yl)methyl]N,N-diethylethanammonium bromide] | 1100 ± 100 s⁻¹ | 18 fold | 30 fold | HT29 HCR [5]: 18 fold
10 | – | 64500 nM | 2300 nM | 59 nM | 3600 nM | – | – | > 100000 nM | > 30000 nM | – | Cn1cnc([N+](=O)[O-])c1C[N+](C)(C)C/C=C/C(=O)Nc1cc2c(Nc3ccc(F)c(Cl)c3)ncnc2cc1O[C@H]1CCOC1.O=C([O-])C(F)(F)F [Compound 82, (2E)-4-({4-(3-chloro-4-fluoroanilino)-7-[(3S)-tetrahydro-3-furanyloxy]-6-quinazolinyl}amino)-N,N-dimethyl-N-[(1-methyl-4-nitro-1H-imidazol-5-yl)methyl]-4-oxo-2-buten-1-ammonium trifluoroacetate] | – | 28 fold | 62 fold | –
11 | – | – | – | – | – | – | – | – | – | 125 to 129 °C | Cn1cnc([N+](=O)[O-])c1C[N+]1(C/C=C/C(=O)Nc2ccc3ncnc(Nc4cccc(Br)c4)c3c2)CCOCC1.O=C[O-] | – | – | – | –
12 | – | – | – | – | – | – | – | – | – | 177 °C (dec.) | Cn1cnc([N+](=O)[O-])c1C[N+](C)(C)CCCC(=O)Nc1ccc2ncnc(Nc3cccc(Br)c3)c2c1 (as salt: bromide) [Compound 27, 4-{([4-(3-bromoanilino)-6-quinazolinyl]amino}-N,N-dimethyl-N-[(1-methyl-4-nitro-1H-imidazol-5-yl)methyl]-4-oxo-1-butanaminium bromide] | – | – | – | –
